Data reported in ChEMBL document CHEMBL1201862, “PubChem BioAssay data set” (2004).
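In this assay, cells in 96-well plates receive the compound at five concentrations for 48 hours. Endpoints are linearly interpolated between the surrounding concentrations. Here, GI50 denotes the concentration required for 50% inhibition of growth.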 The source made the active and inactive calls. Cut-off read from the data, not from the text of the source: active = GI50 up to about 1.1 µM and inactive = higher.

Columns and labels:
Assay in all cases: NCI tumour cell line growth inhibition, 48 h
NCI-H522 = tested on: NCI-H522
PC-3 = tested on: PC-3
NCI-H460 = tested on: NCI-H460
COLO 205 = tested on: COLO 205
KM12 = tested on: KM12
CCRF-CEM = tested on: CCRF-CEM
OVCAR-4 = tested on: OVCAR-4
LOX IMVI = tested on: LOX IMVI
UACC-62 = tested on: UACC-62
TK-10 = tested on: TK-10
U-251 = tested on: U-251
MDA-MB-231 = tested on: MDA-MB-231
CAKI-1 = tested on: CAKI-1
MOLT-4 = tested on: MOLT-4
SNB-75 = tested on: SNB-75
OVCAR-5 = tested on: OVCAR-5
HCT-116 = tested on: HCT-116
MCF7 = tested on: MCF7
UO-31 = tested on: UO-31
RXF 393 = tested on: RXF 393

| SMILES | GI50 (NCI-H522) | GI50 (PC-3) | GI50 (NCI-H460) | GI50 (COLO 205) | GI50 (KM12) | GI50 (CCRF-CEM) | GI50 (OVCAR-4) | GI50 (LOX IMVI) | GI50 (UACC-62) | GI50 (TK-10) | GI50 (U-251) | GI50 (MDA-MB-231) | GI50 (CAKI-1) | GI50 (MOLT-4) | GI50 (SNB-75) | GI50 (OVCAR-5) | GI50 (HCT-116) | GI50 (MCF7) | GI50 (UO-31) | GI50 (RXF 393) |
| --- | --- | --- | --- | --- | --- | --- | --- | --- | --- | --- | --- | --- | --- | --- | --- | --- | --- | --- | --- | --- |
| O=[N+]([O-])c1ccc(S(=O)(=O)Cc2ccccc2)c2nonc12 | 18.8 µM (inactive) | 17.8 µM (inactive) | 21.1 µM (inactive) | 16.4 µM (inactive) | 19.5 µM (inactive) | 9.06 µM (inactive) | 17.3 µM (inactive) | 19.2 µM (inactive) | 17.8 µM (inactive) | 18.1 µM (inactive) | 18.2 µM (inactive) | 22.5 µM (inactive) | 20.1 µM (inactive) | 18.7 µM (inactive) | 27.6 µM (inactive) | 58.2 µM (inactive) | 17.3 µM (inactive) | 20.2 µM (inactive) | 29.2 µM (inactive) | 17.7 µM (inactive) |
| N#CC(C#N)=Cn1c(=S)[nH]c2ccccc21 | > 100 µM (inactive) | > 100 µM (inactive) | > 100 µM (inactive) | > 100 µM (inactive) | > 100 µM (inactive) | > 100 µM (inactive) | > 100 µM (inactive) | > 100 µM (inactive) | > 100 µM (inactive) | > 100 µM (inactive) | > 100 µM (inactive) | > 100 µM (inactive) | > 100 µM (inactive) | > 100 µM (inactive) | 50.8 µM (inactive) | > 100 µM (inactive) | > 100 µM (inactive) | > 100 µM (inactive) | > 100 µM (inactive) | > 100 µM (inactive) |
| CCCCCCCCCCCC(=O)N(CCCCCCCCC)CC(O)C(O)C(OC1OC(CO)C(O)C(O)C1O)C(O)CO (centres undefined) | 22.1 µM (inactive) | 19.2 µM (inactive) | 18.1 µM (inactive) | 20.7 µM (inactive) | 16.7 µM (inactive) | 24 µM (inactive) | 21 µM (inactive) | 20.9 µM (inactive) | 17.7 µM (inactive) | 15.2 µM (inactive) | 20.4 µM (inactive) | 26 µM (inactive) | 20.7 µM (inactive) | 23.2 µM (inactive) | 18.5 µM (inactive) | 22.7 µM (inactive) | 17.7 µM (inactive) | 35.8 µM (inactive) | 17 µM (inactive) | 20.7 µM (inactive) |
| C=C1CCN2CC[C@@H](OC(=O)/C(C)=C\C)[C@@H]12 | > 100 µM (inactive) | > 100 µM (inactive) | > 100 µM (inactive) | > 100 µM (inactive) | > 100 µM (inactive) | > 100 µM (inactive) | > 100 µM (inactive) | > 100 µM (inactive) | > 100 µM (inactive) | > 100 µM (inactive) | > 100 µM (inactive) | > 100 µM (inactive) | > 100 µM (inactive) | > 100 µM (inactive) | > 100 µM (inactive) | > 100 µM (inactive) | > 100 µM (inactive) | > 100 µM (inactive) | > 100 µM (inactive) | > 100 µM (inactive) |
| O=C1CSC2(CC(/C=C/c3ccccc3)=NN2c2cccc(S(=O)(=O)O)c2)N1c1nc2ccccc2s1 (centres undefined) | 19.5 µM (inactive) | 25.6 µM (inactive) | 26.3 µM (inactive) | > 100 µM (inactive) | 19.4 µM (inactive) | 19.1 µM (inactive) | 20.9 µM (inactive) | 9.59 µM (inactive) | 18.9 µM (inactive) | 19.5 µM (inactive) | 20.6 µM (inactive) | 24.5 µM (inactive) | 38.5 µM (inactive) | 24.9 µM (inactive) | 26.7 µM (inactive) | 27.8 µM (inactive) | 36.8 µM (inactive) | 17.1 µM (inactive) | 18.5 µM (inactive) | 22.1 µM (inactive) |
| C[Si](C)(C)C#CCOC=C1CC1 | > 100 µM (inactive) | > 100 µM (inactive) | > 100 µM (inactive) | > 100 µM (inactive) | > 100 µM (inactive) | 34.4 µM (inactive) | > 100 µM (inactive) | 28.6 µM (inactive) | > 100 µM (inactive) | > 100 µM (inactive) | > 100 µM (inactive) | > 100 µM (inactive) | > 100 µM (inactive) | > 100 µM (inactive) | > 100 µM (inactive) | > 100 µM (inactive) | > 100 µM (inactive) | > 100 µM (inactive) | > 100 µM (inactive) | 3.45 µM (inactive) |
| c1ccc(C(c2cccc3c2ccc2ccccc23)C(c2ccccc2)c2cccc3c2ccc2ccccc23)cc1 (centres undefined) | > 100 µM (inactive) | > 100 µM (inactive) | > 100 µM (inactive) | > 100 µM (inactive) | > 100 µM (inactive) | > 100 µM (inactive) | > 100 µM (inactive) | > 100 µM (inactive) | > 100 µM (inactive) | > 100 µM (inactive) | > 100 µM (inactive) | > 100 µM (inactive) | > 100 µM (inactive) | > 100 µM (inactive) | > 100 µM (inactive) | > 100 µM (inactive) | > 100 µM (inactive) | > 100 µM (inactive) | > 100 µM (inactive) | > 100 µM (inactive) |
| COc1ccc(C(=O)CCN(C)C)c2ccccc12 | 5.21 µM (inactive) | 17.6 µM (inactive) | > 59.8 µM (inactive) | 18.6 µM (inactive) | 19.5 µM (inactive) | 2.79 µM (inactive) | 24.3 µM (inactive) | 18.9 µM (inactive) | > 41.4 µM (inactive) | > 38.3 µM (inactive) | 18.2 µM (inactive) | 19.1 µM (inactive) | 6.78 µM (inactive) | 17.9 µM (inactive) | 23 µM (inactive) | 55.6 µM (inactive) | 21.8 µM (inactive) | 4.63 µM (inactive) | 21.5 µM (inactive) | 21.3 µM (inactive) |
| O=C(O)C(CO)NC(=O)C1C(C(=O)O)C(c2ccccc2[N+](=O)[O-])C=C(c2ccco2)N1c1ccncc1 (centres undefined) | 4.61 µM (inactive) | 9.35 µM (inactive) | 6.31 µM (inactive) | 4.62 µM (inactive) | 1.73 µM (inactive) | 2.19 µM (inactive) | 12.7 µM (inactive) | 1.57 µM (inactive) | 7.83 µM (inactive) | 2.9 µM (inactive) | 2.34 µM (inactive) | 3.33 µM (inactive) | 8.85 µM (inactive) | 2.44 µM (inactive) | 8.97 µM (inactive) | 11.7 µM (inactive) | 1.67 µM (inactive) | 1.99 µM (inactive) | 3.68 µM (inactive) | 1.64 µM (inactive) |
| ClC1=C(Cl)C(Cl)(Cl)SS1 | 2.88 µM (inactive) | > 10 µM (inactive) | > 10 µM (inactive) | 1.98 µM (inactive) | > 10 µM (inactive) | 0.879 µM (active) | > 5.93 µM (inactive) | > 4.15 µM (inactive) | > 10 µM (inactive) | > 5.86 µM (inactive) | > 10 µM (inactive) | > 10 µM (inactive) | 2.96 µM (inactive) | 1.31 µM (inactive) | > 10 µM (inactive) | > 10 µM (inactive) | > 4.57 µM (inactive) | > 5.27 µM (inactive) | > 4.47 µM (inactive) | > 10 µM (inactive) |
| CN(C)/C=N/S(=O)(=O)c1nn2c(C=O)c(-c3cc4ccccc4oc3=O)nc2s1 | 1.16 µM (inactive) | 12.4 µM (inactive) | 19.3 µM (inactive) | 1.91 µM (inactive) | 12.1 µM (inactive) | 0.276 µM (active) | 8.38 µM (inactive) | 2.65 µM (inactive) | 7.28 µM (inactive) | 3.52 µM (inactive) | 8.09 µM (inactive) | 10.7 µM (inactive) | 1.75 µM (inactive) | 1.89 µM (inactive) | 27.4 µM (inactive) | 14.6 µM (inactive) | 1.79 µM (inactive) | 3.54 µM (inactive) | 1.51 µM (inactive) | 2.58 µM (inactive) |
| Cc1c2cnccc2c(C)c2c1[nH]c1ccc(O)cc12 | 2.82 µM (inactive) | 2.15 µM (inactive) | 0.458 µM (active) | 2.68 µM (inactive) | 0.962 µM (active) | 0.74 µM (active) | 2.33 µM (inactive) | 0.342 µM (active) | 7.76 µM (inactive) | 3.91 µM (inactive) | 2.02 µM (inactive) | 1.57 µM (inactive) | 1.43 µM (inactive) | 0.498 µM (active) | 1.87 µM (inactive) | 2.4 µM (inactive) | 0.796 µM (active) | 0.914 µM (active) | – | 1.53 µM (inactive) |
| CC(=O)OCC1OC(OC2CC3C(C)(C)C(OC(C)=O)CC[C@]3(C)C3CCC45CC4(CCC5[C@@H](C)C[C@H](O)C(O)C(C)(C)O)[C@]23C)C(O)C(O)C1O (some centres undefined) | > 10 µM (inactive) | > 10 µM (inactive) | > 10 µM (inactive) | > 10 µM (inactive) | > 10 µM (inactive) | > 10 µM (inactive) | > 10 µM (inactive) | > 10 µM (inactive) | > 10 µM (inactive) | > 10 µM (inactive) | > 10 µM (inactive) | > 10 µM (inactive) | > 10 µM (inactive) | > 10 µM (inactive) | > 10 µM (inactive) | > 10 µM (inactive) | > 10 µM (inactive) | 6.61 µM (inactive) | > 10 µM (inactive) | > 10 µM (inactive) |
| Cc1csc(-c2cn(C)c3c2C(=O)C(=N)C=C3O)n1 | 13.6 µM (inactive) | 7.01 µM (inactive) | 3.97 µM (inactive) | 4.53 µM (inactive) | 11.2 µM (inactive) | 5.31 µM (inactive) | > 100 µM (inactive) | 3.52 µM (inactive) | 7.59 µM (inactive) | 46.1 µM (inactive) | 37.1 µM (inactive) | 51.6 µM (inactive) | 3.68 µM (inactive) | 3.18 µM (inactive) | 1.8 µM (inactive) | 42.4 µM (inactive) | 8.3 µM (inactive) | 3.27 µM (inactive) | 5.9 µM (inactive) | 54.1 µM (inactive) |
